Experiments:
[1] = Pharmacokinetic study in rat plasma after oral administration of Flos Chrysanthemi extract (UPLC-MS/MS); assay type: in vivo, Sprague-Dawley rats; conditions: rats, oral Flos Chrysanthemi extract 10 g/kg; for Detection in plasma over the sampling time: result in words; for AUC: read-out: AUC(0 − tn); for k el: read-out: Ke (converted)
Protocol: Six male Sprague-Dawley rats (250 ± 5 g) were purchased from Huafukang Bioscience Co., Inc. (Beijing, China). The rats were adapted to the facility for a week. Before the experiments, rats were fasted for 12 h, although drinking water was readily accessible. Flos Chrysanthemi extract was dissolved in CMC-Na aqueous solution and orally administered to the animals once at 10 g/kg. Blood samples (220 μL) were taken from the orbital venous plexus of rats at 0, 0.03, 0.08, 0.17, 0.25, 0.5, 1, 2, 4, 6, 8, 10, 12, and 24 h after extract administration. Blood samples were promptly centrifuged at 6000 rpm for 10 min, and plasma samples were collected. The obtained plasma was stored at -80°C until analysis. “Drug and Statistics 3.0” software (Medical College of Wannan, China) was used to calculate pharmacokinetic parameters. The animal protocol was approved by the Animal Ethics Committee of Tianjin University of Traditional Chinese Medicine (TCM-LAEC20190056).
Plasma samples from rats orally administered with Flos Chrysanthemi extract (10.0 g/kg) were analysed with UPLC-MS/MS. Plasma concentration-time curves are shown in Figure 3, and the primary pharmacokinetic parameters of each analyte are summarized in Table 6.

[2] = Stability of analytes in rat plasma (QC samples under four storage conditions); assay type: in vitro ADME; conditions: n = 6
Protocol: To study the stability of all compounds in rat plasma, low, medium, and high concentrations of QC samples were tested under the following test conditions: stored at an autosampler for 12 hours, stored at room temperature for 6 hours, put through three freeze/thaw cycles, and stored at -80°C for 14 days. Three QC concentrations were tested for each of the above conditions.
The stability of all 13 analytes during sample collection and processing was evaluated with the various storage conditions being tested on spiked plasma samples at three QC concentrations.

[3] = spiked concentration 1000 ng/mL
[4] = male, Sprague-Dawley, rat, plasma, n = 6
[5] = spiked concentration 4000 ng/mL

| Measured concentration, -80°C for 14 days ([2]; spiked concentration 5 ng/mL) | Measured concentration, Autosampler for 12 h ([2]; spiked concentration 5 ng/mL) | Measured concentration, Room temperature for 6 h ([2]; spiked concentration 5 ng/mL) | Measured concentration, Three freeze-thaw cycles ([2]; spiked concentration 5 ng/mL) | Measured concentration, -80°C for 14 days ([2]; spiked concentration 50 ng/mL) | Measured concentration, Autosampler for 12 h ([2]; spiked concentration 50 ng/mL) | Measured concentration, Room temperature for 6 h ([2]; spiked concentration 50 ng/mL) | Measured concentration, Three freeze-thaw cycles ([2]; spiked concentration 50 ng/mL) | Measured concentration, -80°C for 14 days [2, 3] | Measured concentration, Autosampler for 12 h [2, 3] | Measured concentration, Three freeze-thaw cycles [2, 3] | AUC(0-inf) [1, 4] | Cmax [1, 4] | half-life [1, 4] | AUC [1, 4] | k el [1, 4] | Measured concentration, -80°C for 14 days ([2]; spiked concentration 200 ng/mL) | Measured concentration, Autosampler for 12 h ([2]; spiked concentration 200 ng/mL) | Measured concentration, Room temperature for 6 h ([2]; spiked concentration 200 ng/mL) | Structure (SMILES) | Detection in plasma over the sampling time [1] | further results |
| --- | --- | --- | --- | --- | --- | --- | --- | --- | --- | --- | --- | --- | --- | --- | --- | --- | --- | --- | --- | --- | --- |
| 4.8 ± 0.2 ng/mL | 3.9 ± 0.1 ng/mL | 4.4 ± 0.1 ng/mL | 5.7 ± 0.1 ng/mL | 50.3 ± 1.8 ng/mL | 41.8 ± 1.4 ng/mL | 48.7 ± 1.9 ng/mL | 54.5 ± 2.1 ng/mL | 997.8 ± 19.4 ng/mL | 803.4 ± 2.5 ng/mL | 1110.2 ± 4.5 ng/mL |  |  |  |  |  |  |  |  | O=c1c(O[C@@H]2O[C@H](CO)[C@H](O)[C@H](O)[C@H]2O)c(-c2ccc(O)c(O)c2)oc2cc(O)cc(O)c12 [Hyperoside] | detected only at the first few blood sampling points |  |
|  |  |  |  |  |  |  |  |  |  |  | 19100 ± 20000 ng·h/mL | 2550 ± 1120 ng/mL | 5.01 ± 4.44 h | 19100 ± 19900 ng·h/mL | 7.78e-05 s⁻¹ | 205.0 ± 4.0 ng/mL | 203.4 ± 6.1 ng/mL | 182.4 ± 0.6 ng/mL | O=c1cc(-c2ccc(O)c(O)c2)oc2cc(O[C@@H]3O[C@H](CO)[C@@H](O)[C@H](O)[C@H]3O)cc(O)c12 [Cynaroside] |  | Tmax [1, 4]: 6.38 ± 3.8 h; Measured concentration, -80°C for 14 days ([2]; spiked concentration 20 ng/mL): 21.1 ± 0.8 ng/mL; Measured concentration, Autosampler for 12 h ([2]; spiked concentration 20 ng/mL): 20.0 ± 0.2 ng/mL; Measured concentration, Room temperature for 6 h ([2]; spiked concentration 20 ng/mL): 20.6 ± 0.9 ng/mL; Measured concentration, Three freeze-thaw cycles ([2]; spiked concentration 20 ng/mL): 22.6 ± 1.0 ng/mL; Measured concentration, Three freeze-thaw cycles ([2]; spiked concentration 200 ng/mL): 219.8 ± 1.0 ng/mL; Measured concentration, -80°C for 14 days [2, 5]: 4060.3 ± 121.9 ng/mL; Measured concentration, Autosampler for 12 h [2, 5]: 4158.6 ± 15.3 ng/mL; Measured concentration, Room temperature for 6 h [2, 5]: 4360.1 ± 32.4 ng/mL; Measured concentration, Three freeze-thaw cycles [2, 5]: 4152.9 ± 34.1 ng/mL |
| 5.2 ± 0.1 ng/mL | 5.1 ± 0.1 ng/mL | 5.8 ± 0.1 ng/mL | 5.8 ± 0.1 ng/mL | 44.4 ± 0.3 ng/mL | 43.5 ± 0.7 ng/mL | 49.7 ± 2.3 ng/mL | 54.7 ± 0.4 ng/mL | 1117.1 ± 2.0 ng/mL | 1084.8 ± 13.6 ng/mL | 1123.5 ± 7.3 ng/mL | 494 ± 205 ng·h/mL | 194 ± 56.4 ng/mL | 0.2 ± 0.17 h | 426 ± 139 ng·h/mL | 0.00112 s⁻¹ |  |  |  | O=C(/C=C/c1ccc(O)c(O)c1)O[C@@H]1C[C@](O)(C(=O)O)C[C@@H](O)[C@H]1O [Chlorogenic acid] |  | T max ([1]; plasma, n = 6): 0.25 ± 0.00 h; Measured concentration, Room temperature for 6 h [2, 3]: 1079.2 ± 8.3 ng/mL |
|  |  |  |  |  |  |  |  |  |  |  |  |  |  |  |  | 188.6 ± 0.9 ng/mL | 179.0 ± 1.2 ng/mL | 226.4 ± 0.2 ng/mL | COc1ccc(-c2cc(=O)c3c(O)cc(O[C@@H]4O[C@H](CO)[C@@H](O)[C@H](O)[C@H]4O)cc3o2)cc1 [Tilianin] | detected only at the first few blood sampling points | Measured concentration, -80°C for 14 days ([2]; spiked concentration 1 ng/mL): 0.9 ± 0.1 ng/mL; Measured concentration, Autosampler for 12 h ([2]; spiked concentration 1 ng/mL): 0.9 ± 0.1 ng/mL; Measured concentration, Room temperature for 6 h ([2]; spiked concentration 1 ng/mL): 1.1 ± 0.1 ng/mL; Measured concentration, Three freeze-thaw cycles ([2]; spiked concentration 1 ng/mL): 1.0 ± 0.1 ng/mL; Measured concentration, -80°C for 14 days ([2]; spiked concentration 10 ng/mL): 10.2 ± 0.2 ng/mL; Measured concentration, Autosampler for 12 h ([2]; spiked concentration 10 ng/mL): 9.3 ± 0.1 ng/mL; Measured concentration, Room temperature for 6 h ([2]; spiked concentration 10 ng/mL): 9.9 ± 0.3 ng/mL; Measured concentration, Three freeze-thaw cycles ([2]; spiked concentration 10 ng/mL): 11.3 ± 0.2 ng/mL; Measured concentration, Three freeze-thaw cycles ([2]; spiked concentration 200 ng/mL): 209.6 ± 0.3 ng/mL |

From publication PMC7456477, “Pharmacokinetic Study of Thirteen Ingredients after the Oral Administration of Flos Chrysanthemi Extract in Rats by UPLC-MS/MS” (BioMed Research International, 2020)
